The target in one assay is T1, FGFR.
T1 construct: fused on or other part: GST tag
Put plainly: FGFR kinase HTRF assay. The assay is classed as biochemical. The conditions noted are these: 10 μM ATP, read-out: IC50 (μM) - Enzyme Inhibition Assays FGFR. The procedure:
To determine inhibition of KDR, FGFR, EGFR, and PDGFR activity, kinase assays were conducted using an HTRF (Homogeneous Time Resolved Fluorescence) assay. This assay is described in A. J. Kolb et. al., Drug Discovery Today, 1998, 3(7), p 333.
Kinase activity assays were performed in 96-well polypropylene plates (Falcon) with a total volume of 90 μL in each well. Each well contained 1 μM KDR substrate (Biotin-EEEEYFELVAKKKK), 1 nM activated KDR, and a test compound with one of 8 assay concentrations ranging from 100 μM to […] (1:5 serial dilution). The kinase activity assay was done in the presence of 100 mM HEPES, pH 7.4, 1 mM DTT, 0.1 mM Na2VO4, 25 mM MgCl2, 50 mM NaCl (from KDR stock solution), 1% DMSO (from compound), 0.3 mM ATP (at Km concentration) and 0.02% BSA. The reaction was incubated at 37° C. for 30 minutes. To stop the KDR reaction, 72 μL of reaction mixture was transferred into a STOP plate containing 18 μL of revelation buffer (20 mM EDTA, 50 mM HEPES, pH 7.4, 0.02% BSA, 10 nM Eu-labelled anti-pY antibody (final conc. 2 nM), and 100 nM streptavidin (final conc. 20 nM)). After mixing, 35 μL of solution was transferred into duplicate wells of a 384-well black plate (Costar), and read at 615/665 nm on a Wallac Victor 5 reader.
FGFR, EGFR, and PDGFR activity assays were carried out as described above for the KDR activity assay with the following differences. GST-tagged FGFR enzyme was activated at room temperature for 1 hour in the following activation buffer: 100 mM HEPES, pH 7.4, 50 mM NaCl, 20 mM MgCl2, and 4 mM ATP. The kinase activity assay was performed with 1 μM substrate (Biotin-EEEEYFELV), 1.5 nM activated FGFR, and test compound in the presence of 100 mM HEPES, 1 mM DTT, 0.4 mM MgCl2, 0.4 mM MnCl2, 50 mM NaCl, 1% DMSO, 10 μM ATP (Km=8.5 μM for FGFR), 0.1 mM Na2VO4, and 0.02% BSA, in a total volume of 90 μL. The rest of the assay was performed in the same manner as KDR assay.
Compound IC50 values were determined from duplicate sets of data, and calculated by using Excel and fitting data to equation Y=[(a−b)/{1+(X/c)^d]+b, where a and b are enzyme activity in the presence of no test inhibitor compound and an infinite amount of inhibitor test compound, respectively, c is the IC50 and d is the hill constant of the compound response. The IC50 value is the concentration of test compound that reduces by 50% the enzyme activity under the test conditions described.
For orientation: Time-resolved FRET reads energy transfer from a long-lived donor to a nearby acceptor.

A further assay deals with FGF-stimulated HUVEC. Nature of the assay: FGF-stimulated HUVEC proliferation assay (BrdU). Format: cell-based. The conditions noted are these: Homo sapiens, FGF 5 ng per mL, BrdU labeling, 24 hour exposure, read-out: IC50 (μM) of VEGF and FGF-Stimulated HUVEC Proliferation Assays HUVEC/bFGFR. How it is done:
The antiproliferative activity of test compounds of this invention in cell-based assays was evaluated by BrdU assay using the BrdU kit (Roche Biochemicals 1-647-229). Human umbilical vein endothelial cells (HUVEC, Clonetics CC-2519) were cultured in EGM-2 (Clonetics CC-3162) medium and seeded at 10000 cells per well in a volume of 200 μL of EGM-2 (Clonetics CC-3162) media in a 96-well flat bottom plates (Costar 3595) overnight. After 24 hours of growth at 37° C. with 5% CO2, the incubation media was removed slowly by aspiration and the content of each well was washed with 300 μL pre-warmed EBM-2 (Clonetics CC-3156) containing 50 μg per mL of gentamycin and 50 ng per mL of amphotercin-B (Clonetics CC-4083). Subsequently, the remaining media was again aspirated and replaced with 160 μL per well of serum starvation media (EBM-2 supplemented with 1% heat inactivated FBS (Clonetics CC-4102), 50 μg per mL gentamycin and 50 ng per mL of amphotercin-B (Clonetics CC-4083), 10 units per mL of Wyeth-Ayerst heparin (NDC0641-0391-25), and 2 mM L-glutamine (GIBCO 25030-081). After serum starving the cells for 24 hours, 20 μL of test compound at 10× test concentration in serum starvation medium with 2.5% DMSO was added to the appropriate wells. The control wells contained 20 μL of serum starvation medium with 2.5% DMSO. Plates were returned to the incubator for 2 hours. After pre-incubating the cells with the test compounds for 2 hours, 20 μL of growth factors at 10× assay concentration diluted in serum starvation media, FGF at 50 ng per mL, or VEGF (R&D systems 293-VE) at 200 ng per mL were added. The final concentration of FGF in the assay was 5 ng per mL and the final concentration of VEGF in the assays was 20 ng per mL. The growth factor free control wells had 20 μL per well of serum starvation media with the same amount of BSA as the wells with growth factors. The plates were returned to the incubator for an additional 22 hours.
After 24 hour exposure to the test compounds, the cells were labeled with BrdU (Roche Biochemicals 1-647-229), by adding 20 μL per well of BrdU labeling reagent that has been diluted (1:100) in serum starvation medium. The plates were then returned to the incubator for 4 hours. The labeling medium was removed by draining the medium onto paper towels. The cells were fixed and DNA denatured by adding 200 μL of fixation/denaturation solution to each well and incubating at room temperature for 45 minutes. The fixation/denaturation solution was drained onto paper towels and to each well was added 100 μL of anti-BrdU-POD and the wells were incubated for 2 hours at room temperature. The antibody solution was removed and the wells were each washed 3–4 times with 300 μl PBS. 100 μL of the TMB substrate solution was added to each well and the wells were incubated at room temperature for 5–8 minutes. The reaction was then stopped by adding 100 μL per well of 1 M phosphoric acid. The plates were read at 450 nm with reference wavelength of 650 nm. The percent inhibition for each test compound was calculated by subtracting the absorbency of the blank (no cells) wells from all wells, then subtracting the division of the average absorbency of each test duplicate by the average of the controls from 1. The final product was then multiplied by 100 (% of inhibition=(1−average absorbency of test duplicate/average of control)100). The IC50 value is the concentration of test compound that inhibits by 50% BrdU labeling, and is a measure of inhibition of cell proliferation. The IC50 is determined from the linear regression of a plot of the logarithm of the concentration versus percent inhibition.

In the case of `COc1ccc(N2C(=O)N(c3ccccc3)c3nc(Nc4ccccc4)ncc3C2C)cc1` (racemic) [Example 1g, (±)-3-(4-Methoxy-phenyl)-4-methyl-1-phenyl-7-phenylamino-3,4-dihydro-1H-pyrimido[4,5-d]pyrimidin-2-one], the IC50 at FGFR and in the assay with FGF-stimulated HUVEC was less than 10 µM throughout.
`COc1ccc(N2C(=O)N(c3ccc(OC)cc3)C(C)c3cnc(Nc4ccccc4)nc32)cc1` (racemic) [Example 4b, (±)-1,3-Bis-(4-methoxy-phenyl)-4-methyl-7-phenylamino-3,4-dihydro-1H-pyrimido[4,5-d]pyrimidin-2-one]: the IC50 on FGFR and in the assay with FGF-stimulated HUVEC was less than 10 µM throughout.
For `COc1ccc(N2C(=O)N(c3cccc(C#N)c3)c3nc(Nc4ccccc4)ncc3C2C)cc1` (racemic) [Example 5b, (±)-3-[3-(4-Methoxy-phenyl)-4-methyl-2-oxo-7-phenylamino-3,4-dihydro-2H-pyrimido[4,5-d]pyrimidin-1-yl]-benzonitrile], the IC50 at FGFR and in the assay with FGF-stimulated HUVEC was less than 10 µM in each case.
Turning to `COc1ccc(N2C(=O)N(c3cccc(C(N)=O)c3)c3nc(Nc4ccccc4)ncc3C2C)cc1` (racemic) [Example 6, (±)-3-[3-(4-Methoxy-phenyl)-4-methyl-2-oxo-7-phenylamino-3,4-dihydro-2H-pyrimido[4,5-d]pyrimidin-1-yl]-benzamide], the IC50 on FGFR and in the assay with FGF-stimulated HUVEC was less than 10 µM in each case.
As for `COc1ccc(N2C(=O)N(c3ccccc3)c3nc(Nc4ccccc4)ncc3C2C)c(F)c1` (racemic) [Example 8d, (±)-3-(2-Fluoro-4-methoxy-phenyl)-4-methyl-1-phenyl-7-phenylamino-3,4-dihydro-1H-pyrimido[4,5-d]pyrimidin-2-one], the IC50 on FGFR and in the assay with FGF-stimulated HUVEC was less than 10 µM each time.
For the molecule `COc1ccc(N2C(=O)N(c3cccc(C#N)c3)c3nc(Nc4ccccc4)ncc3C2C)c(F)c1` (racemic) [Example 9b, (±)-3-[3-(2-Fluoro-4-methoxy-phenyl)-4-methyl-2-oxo-7-phenylamino-3,4-dihydro-2H-pyrimido[4,5-d]pyrimidin-1-yl]-benzonitrile], the IC50 on FGFR and with FGF-stimulated HUVEC was less than 10 µM throughout.
Consider `COc1ccc(N2C(=O)N(c3cccc(C(N)=O)c3)c3nc(Nc4ccccc4)ncc3C2C)c(F)c1` (racemic) [Example 10, (±)-3-[3-(2-Fluoro-4-methoxy-phenyl)-4-methyl-2-oxo-7-phenylamino-3,4-dihydro-2H-pyrimido[4,5-d]pyrimidin-1-yl]-benzamide], for which the IC50 at FGFR and in the assay on FGF-stimulated HUVEC was less than 10 µM in each case.
In the case of `COc1ccc(N2C(=O)N(c3ccccc3)c3nc(Nc4ccccc4)ncc3[C@@H]2C)cc1` (single isomer, unassigned) [Example 3], the IC50 on FGFR and with FGF-stimulated HUVEC was less than 10 µM in each case.
Take `COc1ccc(N2C(=O)N([C@H](C)CO)c3nc(Nc4ccccc4)ncc3[C@@H]2C)cc1` [Example 15b, 1-(2-Hydroxy-1-(R)-methyl-ethyl)-3-(4-methoxy-phenyl)-4-(S)-methyl-7-phenylamino-3,4-dihydro-1H-pyrimido[4,5-d]pyrimidin-2-one]: the IC50 on FGFR and with FGF-stimulated HUVEC was less than 10 µM in each case.
